Laboratory results taken from paper PMC9664070, “The anticonvulsant phytocannabinoids CBGVA and CBDVA inhibit recombinant T-type channels” (Frontiers in Pharmacology, 2022).

What was measured:
[1] = ref Anderson et al., cited from earlier work
[2] = biological target: T1, Cav3.1 (Homo sapiens, UniProt O43497); assay: Whole-cell voltage-clamp electrophysiology in HEK293 Flp-In T-REx cells; assay type: cell-based
T1 construct: expressed in transfected cells; host or cells: HEK293 Flp-In T-REx
Description: All whole-cell voltage-clamp recordings from HEK293 Flp-In T-REx cells stably transfected with human Cav3.1, Cav 3.2 and Cav 3.3 were performed at room temperature. At least 24 h prior to experiments, cells were detached from flasks using trypsin/EDTA and plated into 10 cm sterile tissue culture dishes containing 10 ml of supplemented DMEM and 10–15 glass coverslips (12 mm diameter, ProScitech, QLD, Australia). Culture dishes were then kept overnight in same conditions as flasks to allow cells to adhere to coverslips. They were then transferred to a 30°C/5% CO2 incubator to inhibit cell proliferation until ready to be used for electrophysiology experiments. At this stage, channel expression was induced with tetracycline (2 μg/ml, Sigma-Aldrich) 8–24 h prior to recording cells.
External recording solutions contained (in mM): 114 CsCl, 5 BaCl2, 1 MgCl2, 10 HEPES, 10 glucose, adjusted to pH 7.4 with CsOH. The internal patch pipette solution contained (in mM): 126.5 CsMeSO4, 2 MgCl2, 11 EGTA, 10 HEPES adjusted to pH 7.3 with CsOH. Internal solution was supplemented with 0.6 mM GTP and 2 mM ATP and mixed thoroughly just before use. Liquid junction potentials for the above solutions were calculated before experiments using pClamp 10 software and corrected during experiments. Compounds were prepared daily from 30 mM DMSO stocks and diluted into an external solution just before use. Compounds were then applied rapidly and locally to the cells using a custom-built gravity-driven micro-perfusion system ([Feng et al., 2003]). […] Currents were elicited from a holding potential of -100 mV and were measured by conventional whole-cell patch clamp techniques using an Axopatch 200B amplifier in combination with Clampex 9.2 software. (Molecular Devices, Sunnyvale, CA). After establishing whole cell configuration, cellular capacitance was minimised using the amplifier’s built-in analogue compensation. Series resistance was kept to <10 MΩ and was compensated to at least 85% in all experiments. All data were digitised at 10 kHz with a Digidata 1,320 interface (Molecular Devices) and filtered at 1 kHz (8-pole Bessel filter). Raw and online leak-subtracted data were both collected simultaneously, P/N4 leak subtraction was performed using opposite polarity and after the protocol sweep.
For tonic inhibition of T-type currents, membrane potential was stepped from −100 mV to −30 mV for 200 ms and then allowed to recover for 12 s (1 sweep). A minimum of 10 sweeps were collected under vehicle control external perfusion to allow for control peak current to equilibrate. The drug was then continuously perfused, and sweeps were recorded until no further inhibition was seen (minimum of 3 sweeps with the same amplitude). In current-voltage relation studies, the membrane potential was held at −100 mV and cells were depolarised from −70 to 50 mV in 10 mV increments. For steady-state inactivation studies, a 3.6 s conditioning pre-pulse of various magnitudes (initial holding at −110 mV) was followed by a depolarising pulse to −30 mV. Individual sweeps were separated by 12 s to permit recovery from inactivation between conditioning pulses. The duration of the test pulse was typically 20 ms, and the current amplitude obtained from each test pulse was normalised to that observed at the holding potential of −100 mV.
The effect of CBGVA and CBDVA (5 µM each) on slow inactivation was tested using a 2-pulse voltage protocol as described in Bladen et al., (2021). Briefly, cells expressing Cav3.1 were initially depolarised with a 200 ms test pulse from -120 mV to −30 mV to generate peak current (P1) and followed by a 10 s pre-conditioning pulse to −80 mV to reverse fast inactivation. Cells were further depolarised with another 200 ms test pulse from −120 to −30 mV (P2) (Figure 2 inset).
THC and CBD cause substantial frequency-dependent inhibition of Cav3.2 and Nav1.8 channels, respectively ([Ross et al., 2008]; [Bladen et al., 2021]; [Zhang and Bean, 2021]). […]

[3] = test system: autaptic hippocampal neurons; set-up: method as in Straiker et al., 2021; settings: ref Straiker et al., 2021; cited from earlier work

T1 sequence (O43497 whole entry): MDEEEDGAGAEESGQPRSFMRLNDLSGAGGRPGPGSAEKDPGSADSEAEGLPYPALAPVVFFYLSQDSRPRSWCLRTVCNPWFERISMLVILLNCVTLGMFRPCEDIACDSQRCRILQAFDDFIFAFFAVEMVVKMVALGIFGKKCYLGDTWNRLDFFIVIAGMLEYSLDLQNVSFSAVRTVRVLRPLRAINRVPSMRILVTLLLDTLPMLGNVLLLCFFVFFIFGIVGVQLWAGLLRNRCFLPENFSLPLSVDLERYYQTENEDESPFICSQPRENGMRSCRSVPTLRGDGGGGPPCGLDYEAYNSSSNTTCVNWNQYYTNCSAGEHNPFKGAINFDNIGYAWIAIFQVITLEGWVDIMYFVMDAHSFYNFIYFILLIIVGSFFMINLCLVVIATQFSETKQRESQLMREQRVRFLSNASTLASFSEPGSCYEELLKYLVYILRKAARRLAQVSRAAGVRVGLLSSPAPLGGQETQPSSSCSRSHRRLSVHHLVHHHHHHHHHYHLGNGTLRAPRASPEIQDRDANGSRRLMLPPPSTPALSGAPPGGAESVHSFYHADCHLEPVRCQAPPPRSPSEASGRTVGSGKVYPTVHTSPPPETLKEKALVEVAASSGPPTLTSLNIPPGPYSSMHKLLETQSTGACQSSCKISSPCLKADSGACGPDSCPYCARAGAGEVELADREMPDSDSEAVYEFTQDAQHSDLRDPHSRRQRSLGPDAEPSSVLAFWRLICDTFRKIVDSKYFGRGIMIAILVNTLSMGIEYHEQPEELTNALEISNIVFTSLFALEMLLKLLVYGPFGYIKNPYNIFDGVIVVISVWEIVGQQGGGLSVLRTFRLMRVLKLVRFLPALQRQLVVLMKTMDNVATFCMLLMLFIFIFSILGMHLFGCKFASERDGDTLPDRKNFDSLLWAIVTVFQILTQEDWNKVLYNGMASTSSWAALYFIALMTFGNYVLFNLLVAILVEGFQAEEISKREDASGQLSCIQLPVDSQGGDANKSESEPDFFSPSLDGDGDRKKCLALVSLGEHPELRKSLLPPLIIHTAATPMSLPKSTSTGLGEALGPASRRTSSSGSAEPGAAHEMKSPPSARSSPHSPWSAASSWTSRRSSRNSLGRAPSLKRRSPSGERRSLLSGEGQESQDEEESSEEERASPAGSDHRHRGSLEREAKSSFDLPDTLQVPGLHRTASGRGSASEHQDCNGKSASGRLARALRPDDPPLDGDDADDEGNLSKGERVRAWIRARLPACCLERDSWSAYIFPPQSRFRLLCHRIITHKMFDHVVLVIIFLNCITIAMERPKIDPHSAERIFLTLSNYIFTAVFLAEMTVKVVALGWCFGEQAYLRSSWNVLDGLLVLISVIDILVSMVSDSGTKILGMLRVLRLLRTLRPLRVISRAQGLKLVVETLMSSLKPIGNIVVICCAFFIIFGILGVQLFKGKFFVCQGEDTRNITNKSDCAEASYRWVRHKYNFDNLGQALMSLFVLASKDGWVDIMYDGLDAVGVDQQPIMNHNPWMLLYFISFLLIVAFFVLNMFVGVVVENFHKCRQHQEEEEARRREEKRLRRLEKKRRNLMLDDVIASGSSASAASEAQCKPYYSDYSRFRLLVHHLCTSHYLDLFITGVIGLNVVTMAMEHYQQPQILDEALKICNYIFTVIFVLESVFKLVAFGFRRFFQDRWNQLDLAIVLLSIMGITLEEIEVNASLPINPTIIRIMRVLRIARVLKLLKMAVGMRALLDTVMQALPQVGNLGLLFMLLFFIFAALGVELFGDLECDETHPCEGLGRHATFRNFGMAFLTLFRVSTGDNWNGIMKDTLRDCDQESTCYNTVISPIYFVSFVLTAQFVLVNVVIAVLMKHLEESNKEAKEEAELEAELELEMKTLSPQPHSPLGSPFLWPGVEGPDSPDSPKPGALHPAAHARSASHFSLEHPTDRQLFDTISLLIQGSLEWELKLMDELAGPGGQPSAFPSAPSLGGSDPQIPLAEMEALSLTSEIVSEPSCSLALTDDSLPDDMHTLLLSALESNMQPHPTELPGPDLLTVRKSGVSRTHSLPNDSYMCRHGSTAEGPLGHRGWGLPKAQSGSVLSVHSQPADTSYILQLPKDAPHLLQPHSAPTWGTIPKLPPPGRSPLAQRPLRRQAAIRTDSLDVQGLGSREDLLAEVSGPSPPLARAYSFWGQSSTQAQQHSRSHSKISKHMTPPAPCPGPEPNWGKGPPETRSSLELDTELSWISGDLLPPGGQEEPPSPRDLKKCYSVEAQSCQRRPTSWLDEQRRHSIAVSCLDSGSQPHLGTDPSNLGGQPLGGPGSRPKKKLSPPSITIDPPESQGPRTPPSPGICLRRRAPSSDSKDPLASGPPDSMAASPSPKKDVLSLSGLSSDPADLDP

C=C(C)[C@@H]1CCC(C)=C[C@H]1c1c(O)cc(CCC)c(C(=O)O)c1O [CBDVA, cannabidivarinic acid]
Peak plasma concentration ([1]; anticonvulsant doses in mice, 2021b): ~239 µM
brain-plasma ratio [1]; 2019: 2%
V0.5 of voltage dependence of Cav3.1 activation ([2]; 5 µM compound): −54.7 ± 1.2 mV
half-inactivation (V0.5), steady-state inactivation of Cav3.1 ([2]; 5 µM compound): −70.9 ± 0.5 mV
Cav3.1 relative current at 50th action potential, % of first ([2]; 5 µM, 0.4 Hz stimulation): 90 ± 1%
Cav3.1 relative current at 50th action potential, % of first ([2]; 5 µM, 0.8 Hz stimulation): 93 ± 1%
inhibition of Cav3.1 peak current, second test pulse (P2), slow inactivated state ([2]; 5 µM, 2-pulse voltage protocol, after 10 s pre-conditioning pulse to −80 mV): 45 ± 5%
inhibition of Cav3.1 peak current, first test pulse (P1) ([2]; 5 µM, 2-pulse voltage protocol, before slow inactivation): 35 ± 5%
Cav3.1 relative current at 50th action potential, % of first ([2]; 5 µM, 2.0 Hz stimulation): 83 ± 1%
IC50 ([2]; patch clamp, step −100 mV to −30 mV every 12 s, read-out: IC50, tonic inhibition of Cav3.1 current amplitude): 7 µM
effect on excitatory neurotransmission [3]: did not alter excitatory neurotransmission
